# According to patent US4277465A, “Adjuvant for promoting absorption of therapeutically active substances through the digestive tract” (Kyoto Yakuhin Kogyo Kabushiki Kaisha, priority 1978, dated 1981):
# Tests used:
# Assay type in all cases: in vivo
# [1] = Rectal insulin suppositories (Recipes 21-34), glucose response; conditions: rectal suppository 6 I.U. insulin
# Protocol: |Enamine derivative (I) | As indicated in | Table 12 […] The above components were used to prepare rectal suppositories in accordance with established pharmaceutical practice. The suppositories were administered to rabbits and dogs by rectal route. […] The test was conducted by the glucose oxidase method.
# [2] = Rectal suppositories of CET-Na with enamine derivative, concentration in blood; conditions: dog
# Protocol: These suppositories were rectally administered to dogs and the absorbabilities of the active components were investigated by measuring the blood concentrations.
# (§1) The blood concentrations were measured in conformity with the biological assay method in the Antibiotic Standard of Japan. The cup method was employed with Sarcina lutea for penicillins and Bacillus subtilis for cephalosporins.
# [3] = Rectal insulin suppositories (Recipes 35-41), glucose response; conditions: rabbit 2.5-3kg; rectal suppository 6 I.U. insulin; enamine derivative 0.025g (5%)
# Excerpt: These suppositories were rectally administered to rabbits (R, 2.5-3kg) and dogs (D, 12-13kg).
# [4] = Rectal suppositories of AB-PC-Na with enamine derivative, concentration in blood; conditions: AB-PC-Na 75mg, dog
# Protocol: as §1, with “These suppositories were rectally administered to dogs and the absorbabilities of the active components were investigated by measuring the blood concentrations. The blood” for “The blood”
# [5] = CET-Na 75mg, enamine derivative 60mg (5%), base Witepsol H-15 1065mg
# [6] = CET-Na 75mg, enamine derivative 120mg (10%), base Witepsol H-15 1005mg
# [7] = enamine derivative 60mg (5%), base Witepsol H-15 1065mg
# [8] = CET-Na 500mg, enamine derivative 150mg (10%), base Witepsol H-15 850mg
# [9] = enamine derivative 120mg (10%), base SB-W 1005mg
# [10] = enamine derivative 120mg (10%), base Witepsol H-15 1005mg
smiles,measurement,setting,value
"CCOC(=O)C=C(C)N[C@@H](Cc1c[nH]cn1)C(=O)[O-].[Na+] [Compound 28, α-N-(1-Methyl-2-ethoxycarbonylvinyl)-L-histidine sodium salt]",Blood glucose response (6 I.U.),"[1]; rabbit, enamine derivative 10%",30%
same,Time course: Lowest level,"[1]; rabbit, enamine derivative 10%",60 to 90 min
same,Time course: Onset,"[1]; rabbit, enamine derivative 10%",30 min
same,Time course: Return to pre-medication level,"[1]; rabbit, enamine derivative 10%",180 min
"CCOC(=O)C=C(C)NCCCCCCCCCCC(=O)[O-].[Na+] [Compound 30, N-(1-Methyl-2-ethoxycarbonylvinyl)-11-aminoundecanoic acid sodium salt]",Time course: Lowest level,"[1]; rabbit, enamine derivative 10%",60 to 90 min
same,Time course: Onset,"[1]; rabbit, enamine derivative 10%",30 min
same,Time course: Return to pre-medication level,"[1]; rabbit, enamine derivative 10%",180 min
"CCOC(=O)C(C)OC(=O)C=C(C)N[C@@H](Cc1ccccc1)C(=O)[O-].[Na+] (stereo partly drawn) [Compound 34, N-[1-Methyl-2-(1-ethoxycarbonyl-ethoxycarbonyl)vinyl]-L-phenylalanine sodium salt]","Concentration in blood, 15 min.",[2]; [5],1250 ng/mL
same,"Concentration in blood, 30 min.",[2]; [5],830 ng/mL
same,"Concentration in blood, 60 min.",[2]; [5],610 ng/mL
same,"Concentration in blood, 120 min.",[2]; [5],390 ng/mL
same,Blood glucose response (6 I.U.),[3],45-55%
same,Time course: Lowest level,[3],45 to 60 min
same,Time course: Onset,[3],15 min
same,Time course: Return to pre-medication level,[3],150 min
"CCOC(=O)C(C)OC(=O)C=C(C)NC(C)C(=O)[O-].[Na+] (racemic) [Compound 33, N-[1-Methyl-2-(1-ethoxycarbonyl-ethoxycarbonyl)vinyl]-DL-alanine sodium salt]",Blood glucose response (6 I.U.),[3],45-55%
same,Time course: Lowest level,[3],45 to 60 min
same,Time course: Onset,[3],15 min
same,Time course: Return to pre-medication level,[3],150 min
"CCOC(=O)C=C(C)N[C@H](C(=O)[O-])C(C)C.[Na+] [Compound 26, N-(1-Methyl-2-ethoxycarbonylvinyl)-L-valine sodium salt]",Time course: Lowest level,"[1]; rabbit, enamine derivative 10%",60 to 90 min
same,Time course: Onset,"[1]; rabbit, enamine derivative 10%",30 min
same,Time course: Return to pre-medication level,"[1]; rabbit, enamine derivative 10%",180 min
"CC(=CC(=O)OC(C)C(=O)O)N[C@@H](CCCNC(=N)N)C(=O)O (stereo partly drawn) [Compound 35, α-N-(1-Methyl-2-(1-carboxy-ethoxycarbonyl)vinyl]-L-arginine]",Blood glucose response (6 I.U.),[3],20-30%
same,Time course: Lowest level,[3],30 to 60 min
same,Time course: Onset,[3],15 min
same,Time course: Return to pre-medication level,[3],120 min
"CCOC(=O)CNC(=O)C=C(C)N[C@@H](Cc1ccccc1)C(=O)[O-].[Na+] [Compound 37, N-(1-Methyl-2-ethoxycarbonylmethylcarbamoyl-vinyl)-L-phenylalanine sodium salt]","Concentration in blood, 15 min.",[2]; [6],1500 ng/mL
same,"Concentration in blood, 30 min.",[2]; [6],1280 ng/mL
same,"Concentration in blood, 60 min.",[2]; [6],870 ng/mL
same,"Concentration in blood, 120 min.",[2]; [6],440 ng/mL
same,Blood glucose response (6 I.U.),[3],20-30%
same,Time course: Lowest level,[3],30 to 60 min
same,Time course: Onset,[3],30 min
same,Time course: Return to pre-medication level,[3],120 min
"CC(=CC(=O)OCC(O)CO)NCC(=O)[O-].[Na+] (stereo not shown) [Compound 38, N-[1-Methyl-2-(2,3-dihydroxypropoxycarbonyl)vinyl]glycine sodium salt]",Blood glucose response (6 I.U.),[3],45-55%
same,Time course: Lowest level,[3],45 to 60 min
same,Time course: Onset,[3],15 min
same,Time course: Return to pre-medication level,[3],150 min
"CCOC(=O)C=C(C)N[C@H](C(=O)[O-])[C@@H](C)O.[Na+] [Compound 22, N-(1-Methyl-2-ethoxycarbonylvinyl)-L-threonine sodium salt]","Concentration in blood, 15 min.",[2]; [5],750 ng/mL
same,"Concentration in blood, 30 min.",[2]; [5],570 ng/mL
same,"Concentration in blood, 60 min.",[2]; [5],310 ng/mL
same,Time course: Lowest level,"[1]; rabbit, enamine derivative 5%",45 to 75 min
same,Time course: Onset,"[1]; rabbit, enamine derivative 5%",30 min
same,Time course: Return to pre-medication level,"[1]; rabbit, enamine derivative 5%",180 min
"CCOC(=O)C=C(C)N[C@@H](CC(C)C)C(=O)[O-].[Na+] [Compound 21, N-(1-Methyl-2-ethoxycarbonylvinyl)-L-leucine sodium salt]",Blood glucose response (6 I.U.),"[1]; dog, enamine derivative 1%",35-45%
same,Time course: Lowest level,"[1]; dog, enamine derivative 1%",60 to 90 min
same,Time course: Onset,"[1]; dog, enamine derivative 1%",30 min
same,Time course: Return to pre-medication level,"[1]; dog, enamine derivative 1%",180 min
"CCOC(=O)C=C(C)N[C@@H](CCSC)C(=O)[O-].[Na+] [Compound 23, N-(1-Methyl-2-ethoxycarbonylvinyl)-L-methionine sodium salt]","Concentration in blood, 15 min.",[4]; [7],520 ng/mL
same,"Concentration in blood, 30 min.",[4]; [7],340 ng/mL
same,"Concentration in blood, 60 min.",[4]; [7],180 ng/mL
same,"Concentration in blood, 120 min.",[4]; [7],80 ng/mL
same,Time course: Lowest level,"[1]; rabbit, enamine derivative 10%",60 to 90 min
same,Time course: Onset,"[1]; rabbit, enamine derivative 10%",30 min
same,Time course: Return to pre-medication level,"[1]; rabbit, enamine derivative 10%",180 min
"CCOC(=O)C=C(C)NC(C(=O)[O-])c1ccccc1.[Na+] (racemic) [Compound 24, N-(1-Methyl-2-ethoxycarbonylvinyl)-DL-phenylglycine sodium salt]",Time course: Lowest level,"[1]; rabbit, enamine derivative 1%",30 to 60 min
same,Time course: Onset,"[1]; rabbit, enamine derivative 1%",15 min
same,Time course: Return to pre-medication level,"[1]; rabbit, enamine derivative 1%",180 min
"CCOC(=O)C=C(C)N[C@@H](CO)C(=O)[O-].[Na+] [Compound 31, N-(1-Methyl-2-ethoxycarbonylvinyl)-L-serine sodium salt]","Concentration in blood, 15 min.",[4]; [7],700 ng/mL
same,"Concentration in blood, 30 min.",[4]; [7],380 ng/mL
same,"Concentration in blood, 60 min.",[4]; [7],240 ng/mL
same,"Concentration in blood, 120 min.",[4]; [7],90 ng/mL
same,Time course: Lowest level,"[1]; rabbit, enamine derivative 10%",60 to 90 min
same,Time course: Onset,"[1]; rabbit, enamine derivative 10%",30 min
same,Time course: Return to pre-medication level,"[1]; rabbit, enamine derivative 10%",180 min
"CCOC(=O)C=C(C)N[C@@H](C)C(=O)[O-].[Na+] [Compound 19, N-(1-Methyl-2-ethoxycarbonylvinyl)-L-alanine sodium salt]",Time course: Lowest level,"[1]; rabbit, enamine derivative 1%",45 to 60 min
same,Time course: Onset,"[1]; rabbit, enamine derivative 1%",30 min
same,Time course: Return to pre-medication level,"[1]; rabbit, enamine derivative 1%",180 min
"CCOC(=O)C=C(C)N[C@H](C(=O)[O-])[C@@H](C)CC.[Na+] [Compound 20, N-(1-Methyl-2-ethoxycarbonylvinyl)-L-isoleucine sodium salt]","Concentration in blood, 15 min.",[2]; [8],9000 ng/mL
same,"Concentration in blood, 30 min.",[2]; [8],6230 ng/mL
same,"Concentration in blood, 60 min.",[2]; [8],2910 ng/mL
same,"Concentration in blood, 120 min.",[2]; [8],1000 ng/mL
same,Blood glucose response (6 I.U.),"[1]; dog, enamine derivative 2%",25-35%
same,Time course: Lowest level,"[1]; dog, enamine derivative 2%",120 min
same,Time course: Onset,"[1]; dog, enamine derivative 2%",60 to 90 min
same,Time course: Return to pre-medication level,"[1]; dog, enamine derivative 2%",180 to 240 min
"CCOC(=O)C=C(C)NC(C)C(=O)[O-].[Na+] (racemic) [Compound 18, N-(1-Methyl-2-ethoxycarbonylvinyl)-DL-alanine sodium salt]",Time course: Lowest level,"[1]; rabbit, enamine derivative 1%",45 to 60 min
same,Time course: Onset,"[1]; rabbit, enamine derivative 1%",30 min
same,Time course: Return to pre-medication level,"[1]; rabbit, enamine derivative 1%",180 min
"CCOC(=O)C=C(C)N[C@@H](Cc1c[nH]c2ccccc12)C(=O)[O-].[Na+] [Compound 27, α-N-(1-Methyl-2-ethoxycarbonylvinyl)-L-tryptophan sodium salt]","Concentration in blood, 15 min.",[4]; [9],1600 ng/mL
same,"Concentration in blood, 30 min.",[4]; [9],1500 ng/mL
same,"Concentration in blood, 60 min.",[4]; [9],740 ng/mL
same,"Concentration in blood, 120 min.",[4]; [9],400 ng/mL
same,Blood glucose response (6 I.U.),"[1]; rabbit, enamine derivative 10%",30%
same,Time course: Lowest level,"[1]; rabbit, enamine derivative 10%",60 to 90 min
same,Time course: Onset,"[1]; rabbit, enamine derivative 10%",30 min
same,Time course: Return to pre-medication level,"[1]; rabbit, enamine derivative 10%",180 min
"CCOC(=O)C=C(C)N[C@@H](Cc1ccccc1)C(=O)[O-].[Na+] [Compound 25, N-(1-Methyl-2-ethoxycarbonylvinyl)-L-phenylalanine sodium salt]",Time course: Lowest level,"[1]; rabbit, enamine derivative 1%",45 to 90 min
same,Time course: Onset,"[1]; rabbit, enamine derivative 1%",30 min
same,Time course: Return to pre-medication level,"[1]; rabbit, enamine derivative 1%",180 min
"CC(=CC(=O)NCCO)N[C@@H](Cc1ccccc1)C(=O)[O-].[Na+] [Compound 36, N-[1-Methyl-2-(2-hydroxyethylcarbamoyl)vinyl]-L-phenylalanine sodium salt]","Concentration in blood, 15 min.",[4]; [10],1450 ng/mL
same,"Concentration in blood, 30 min.",[4]; [10],1530 ng/mL
same,"Concentration in blood, 60 min.",[4]; [10],800 ng/mL
same,"Concentration in blood, 120 min.",[4]; [10],400 ng/mL
same,Blood glucose response (6 I.U.),[3],20-30%
same,Time course: Lowest level,[3],30 to 60 min
same,Time course: Onset,[3],15 min
same,Time course: Return to pre-medication level,[3],120 min
"CCOC(=O)C=C(C)N[C@@H](CCCNC(=N)N)C(=O)O [Compound 29, α-N-(1-Methyl-2-ethoxycarbonylvinyl)-L-arginine]","Concentration in blood, 15 min.",[4]; [9],500 ng/mL
same,"Concentration in blood, 30 min.",[4]; [9],530 ng/mL
same,"Concentration in blood, 60 min.",[4]; [9],610 ng/mL
same,"Concentration in blood, 120 min.",[4]; [9],410 ng/mL
same,Blood glucose response (6 I.U.),"[1]; rabbit, enamine derivative 5%",40-50%
same,Time course: Lowest level,"[1]; rabbit, enamine derivative 5%",60 to 90 min
same,Time course: Onset,"[1]; rabbit, enamine derivative 5%",15 min
same,Time course: Return to pre-medication level,"[1]; rabbit, enamine derivative 5%",210 min
